Here are results for 17 compounds from patent US20070167353A1, “PRODRUG COMPOSITION” (priority 2003, published 2007).

pIC50: −log10 of the molar value. Some results are limits rather than exact numbers.

In one data set the test system is vaccinia virus. As to the kind of experiment: microbe, parasite or virus in culture. It counts as cell-based. The note with it: for pIC50: HFF cells, 3 days, read-out: Vaccinia Plaque Reduction (IC50).
In data set [1] the target is T1, biphenyl hydrolase-like enzyme (BPHL) (Homo sapiens, UniProt Q86WA6).
T1 sequence (Q86WA6 38-291): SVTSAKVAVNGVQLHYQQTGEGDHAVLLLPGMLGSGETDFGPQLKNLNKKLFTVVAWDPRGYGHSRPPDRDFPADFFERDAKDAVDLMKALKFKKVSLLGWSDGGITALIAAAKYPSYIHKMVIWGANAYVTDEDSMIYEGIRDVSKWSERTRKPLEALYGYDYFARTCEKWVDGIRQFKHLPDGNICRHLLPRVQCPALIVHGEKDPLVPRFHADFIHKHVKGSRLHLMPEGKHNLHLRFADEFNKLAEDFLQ
Type of data set: biochemical.

Data set [2] concerns the target T2, HPEPT1 (Homo sapiens, UniProt P46059).
T2 sequence (P46059 1-708): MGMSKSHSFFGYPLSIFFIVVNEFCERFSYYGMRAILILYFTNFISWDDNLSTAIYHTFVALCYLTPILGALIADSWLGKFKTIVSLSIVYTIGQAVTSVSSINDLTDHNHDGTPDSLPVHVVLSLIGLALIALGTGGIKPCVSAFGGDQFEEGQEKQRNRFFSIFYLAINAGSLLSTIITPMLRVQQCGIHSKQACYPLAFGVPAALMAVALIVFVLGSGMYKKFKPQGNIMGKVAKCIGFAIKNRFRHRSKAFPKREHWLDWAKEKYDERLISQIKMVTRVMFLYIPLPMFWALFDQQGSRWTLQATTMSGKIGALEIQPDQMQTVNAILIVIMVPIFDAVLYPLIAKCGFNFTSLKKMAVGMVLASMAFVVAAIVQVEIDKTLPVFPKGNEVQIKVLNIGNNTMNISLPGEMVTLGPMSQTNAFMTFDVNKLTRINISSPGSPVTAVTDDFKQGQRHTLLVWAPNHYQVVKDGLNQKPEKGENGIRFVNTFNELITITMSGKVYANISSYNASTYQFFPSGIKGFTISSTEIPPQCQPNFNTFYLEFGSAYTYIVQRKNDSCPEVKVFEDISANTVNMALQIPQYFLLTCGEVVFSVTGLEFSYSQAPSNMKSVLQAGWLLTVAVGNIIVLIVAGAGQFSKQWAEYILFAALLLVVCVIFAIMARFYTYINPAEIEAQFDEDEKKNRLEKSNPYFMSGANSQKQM
The data set is described as follows: Inhibition of radiolabelled Gly-Sar uptake in DC5 cells overexpressing HPEPT1. Type of data set: cell-based. More on the design: expressed in transfected cells; host or cells: HeLa cells overexpressing hPEPT1 (called 'HPEPT1 infected cells'). Conditions: inhibition of Gly-Sar uptake, DC5 cells overexpressing HPEPT1, 10 min, 37° C.; read-out: DC5 IC50. The protocol: Amino acid prodrugs are tested for their interaction with the dipeptide transporter, HPEPT1, using tissue culture cells that are engineered to overexpress HPEPT1. In this example, the cells that overexpress HPEPT1, termed DC5, are a human meduloblastoma cell line that is stably transfected with a eukaryotic expression vector encoding HPEPT1. […] DC5 cells are plated at a density of 12,000 cells/well in 96-well tissue culture plates and allowed to grow for 2 days. The cells are washed once with 200 microliters of uptake buffer and aspirated. The plates are cooled to 4° C. and 25 ul of uptake buffer containing 125 nanomoles Gly-Sar (at a specific activity of 1 microcurie/micromole) is added. The uptake buffer also contains the prodrugs to be tested at concentrations ranging from 10 micromolar to 20 millimolar. The assay is initiated by placing the plate in a shaking water bath at 37° C. and is terminated after 10 min by rapid washing with multiple changes of 4° C. phosphate buffered saline (PBS). The radioactive Gly-Sar peptide that is transported by the hpept1 is extracted from the cell layer with 200 ul of a one to one mixture of methanol and water and is counted in 4 ml of CytoScint ES™ scintillation cocktail (ICN). The data are plotted as % Gly-Sar uptake of control (no competitive substrate) versus the competitive substrate concentration. […] Typically, values that are below 10 mM indicate that the drug interacts with transporter.

Data set [3] concerns the target T2, HPEPT1. The note with it: for Uptake (hPepT1): HeLa cells overexpressing HPEPT1, 50 micromolar, pH 6.0, 45 minutes; for hPepT1/Control: ratio of uptake in hPepT1 cells versus control cells.
Data set [4] is described as follows: Intestinal absorption after direct duodenal injection in anesthetized rats, plasma by LC/MS/MS. The note with it: for plasma Ara A levels after dosing (in words) / prodrug absorption / prodrug concentrations in systemic plasma (in words): rat, duodenal injection. The protocol: The systemic plasma profiles of the prodrug, Ara A, and its main metabolite, Ara H are then monitored by removing plasma from a jugular vein cannula over a 4 hour period and assaying by LC/MS/MS assay.
Animals were dosed with Ara A at a level of 1.5 mg/rat via direct duodenal injection into anesthetized rats (n=2 per compound). Plasma samples were taken from the jugular vein at 0, 1, 2, and 4 hours from the jugular vein and were assayed for Ara A (▪), and Ara H (♦) by LC/MS/MS.
Animals were dosed with 5′-O-L isoleucyl Ara A prodrug at a level of 2.7 mg/rat via direct duodenal injection into anesthetized rats (n=3 per compound). Plasma samples were taken from the jugular vein at 0, 0.5, 1, 2, and 4 hours from the jugular vein and were assayed for prodrug (□), Ara A (▪), and Ara H (♦) by LC/MS/MS.
FIG. 6 is a graph showing mean plasma profiles of Ara A, Ara H, and 5′-O-D Isoleucyl Ara A after administration of 5′-O-D Isoleucyl Ara A into the duodenum of a rat. Animals were dosed with 5′-O-D Isoleucyl Ara A prodrug at a level of 2.7 mg/rat via direct duodenal injection into anesthetized rats (n=2). Plasma samples were taken from the jugular vein at 0, 0.5, 1, 2, and 4 hours from the jugular vein and were assayed for prodrug (□), Ara A (▪), and Ara H (♦) by LC/MS/MS.
FIG. 7 is a graph showing mean plasma profiles of Ara A, Ara H, and 5′-O-L Valyl Ara A after administration of 5′-O-L Valyl Ara A into the duodenum of a rat. Animals were dosed with 5′-O-L Valyl Ara A prodrug at a level of 3 mg/rat via direct duodenal injection into anesthetized rats (n=2). Plasma samples were taken from the jugular vein at 0, 0.5, 1, 2, and 4 hours from the jugular vein and were assayed for prodrug (□), Ara A (▪), and Ara H (♦) by LC/MS/MS.
FIG. 8 is a graph showing mean plasma profiles of Ara A, Ara H, and 5′-O-D Valyl Ara A after administration of 5′-O-D Valyl Ara A into the duodenum of a rat. Animals were dosed with 5′-O-D Valyl Ara A prodrug at a level of 3.0 mg/rat via direct duodenal injection into anesthetized rats (n=3). Plasma samples were taken from the jugular vein at 0, 0.5, 1, 2, and 4 hours from the jugular vein and were assayed for prodrug (□), Ara A (▪), and ara H (♦) by LC/MS/MS.
FIG. 9 is a graph showing mean plasma profiles of Ara A, Ara H, and 5′-O-Glycyl Ara A after administration of 5′-O-Glycyl Ara A into the duodenum of a rat. Animals were dosed with 5′-O-Glycyl Ara A prodrug at a level of 3.0 mg/rat via direct duodenal injection into anesthetized rats (n=2). Plasma samples were taken from the jugular vein at 0, 0.5, 1, 2, and 4 hours from the jugular vein and were assayed for prodrug (□), Ara A (▪), and Ara H (♦) by LC/MS/MS.

The next data set concerns KB cell. As to the kind of experiment: KB cell cytotoxicity. The note with it: read-out: KB cell cytotoxicity (IC50).
The target in data set [5] is T3, human dipeptide transporter, hPept1 (Homo sapiens, UniProt P46059).
T3 sequence (P46059 1-708): T2 sequence (P46059 1-708)

`OC[C@H]1O[C@@H](n2cnc3c2N=CNC[C@H]3O)C[C@@H]1O` [2′-deoxycoformycin, reference compound]: the “effect on virus replication” value in the data set on vaccinia virus (2′-deoxycoformycin alone at 1 micromolar) was “no effect on virus replication”.

In the case of `NCCCC[C@H](N)C(=O)O[C@H]1C[C@H](n2cc(F)c(=O)[nH]c2=O)O[C@@H]1CO` [3′ lysyl monoester Floxuridine], the “% of Control (VACV)” value in data set [1] turned out to be 7.3%.

For the compound `NCCCCC(N)C(=O)OCC1OC(n2cc(F)c(=O)[nH]c2=O)CC1OC(=O)C(N)CCCCN` (centres unmarked) [3′,5′ lysyl diester Floxuridine], in data set [1], the “% of Control (VACV)” value is 0.0%.

What is called pIC50 is −log10 of the IC50, conventionally taken in molar units. For the compound `NC(CC(=O)O)C(=O)OCC1OC(n2cc(F)c(=O)[nH]c2=O)CC1OC(=O)C(N)CC(=O)O` (centres unmarked) [3′,5′-di-O-aspartyl-Floxuridine], the pIC50 on HPEPT1 [2] was 2.02. Besides, in data set [1], the “% of Control (VACV)” value is recorded as 0.0%.

Turning to `N[C@@H](Cc1ccccc1)C(=O)OC[C@H]1O[C@@H](n2cc(F)c(=O)[nH]c2=O)C[C@@H]1OC(=O)[C@@H](N)Cc1ccccc1` [3′,5′-di-O-phenylalanyl-Floxuridine], the pIC50 at HPEPT1 [2] is 2.56. Moreover, the “% of Control (VACV)” value in data set [1] is on record as 8.9%. Besides, at HPEPT1 [3], the “Uptake (hPepT1)” value is reported as 2.96 ± 0.13 nmole/mg/45 min and the hPepT1/Control is on record as 9.53.

For `CC(C)C(N)C(=O)OC[C@H]1O[C@@H](n2cc(F)c(=O)[nH]c2=O)C[C@@H]1OC(=O)C(N)C(C)C` (some centres unmarked) [3′,5′-di-O-valyl-Floxuridine], the pIC50 on HPEPT1 [2] is 2.80. Also, the “% of Control (VACV)” value in data set [1] is given as 1.7%. On HPEPT1 [3], the “Uptake (hPepT1)” value was found to be 2.78 ± 0.37 nmole/mg/45 min and the hPepT1/Control is 5.18.

Turning to `NC(CC(=O)O)C(=O)OC1CC(n2cc(F)c(=O)[nH]c2=O)OC1CO` (centres unmarked) [3′-O-aspartyl-Floxuridine], the pIC50 on HPEPT1 [2] is 1.98. Further, the “% of Control (VACV)” value in data set [1] is 2.0%.

For `NC(Cc1ccccc1)C(=O)O[C@H]1C[C@H](n2cc(F)c(=O)[nH]c2=O)O[C@@H]1CO` (some centres unmarked) [3′-O-phenylalanyl-Floxuridine], at HPEPT1 [2], the pIC50 is 2.46. Also, in data set [1], the “% of Control (VACV)” value was determined as 24.4%. Moreover, at HPEPT1 [3], the “Uptake (hPepT1)” value was 0.83 ± 0.19 nmole/mg/45 min and the hPepT1/Control came to 2.56.

Consider `CC(C)[C@H](N)C(=O)O[C@H]1C[C@H](n2cc(F)c(=O)[nH]c2=O)O[C@@H]1CO` [3′-O-valyl-Floxuridine], for which the pIC50 on HPEPT1 [2] was 3.01. Further, the “% of Control (VACV)” value in data set [1] amounted to 3.3%. For the same compound, at HPEPT1 [3], the “Uptake (hPepT1)” value is recorded as 1.35 ± 0.13 nmole/mg/45 min and the hPepT1/Control is on record as 1.03.

Turning to `NCCCC[C@H](N)C(=O)OC[C@H]1O[C@@H](n2cc(F)c(=O)[nH]c2=O)C[C@@H]1O` [5′ lysyl monoester Floxuridine], the “% of Control (VACV)” value in data set [1] came to 8.1%.

In the case of `CC[C@@H](C)[C@@H](N)C(=O)OC[C@H]1O[C@@H](n2cnc3c(N)ncnc32)[C@@H](O)[C@@H]1O` [5′-O-D-isoleucyl Ara A], the “plasma Ara A levels after dosing (in words)” value (shortened to “plasma Ara A levels”) in data set [4] is “increased levels of plasma Ara A”. For the same compound, the figures for the pIC50 with vaccinia virus and in the data set with KB cell were 5.52 and below 4.00, respectively.

For the compound `CC(C)[C@@H](N)C(=O)OC[C@H]1O[C@@H](n2cnc3c(N)ncnc32)[C@@H](O)[C@@H]1O` [5′-O-D-valyl Ara A], the “AUC0-4 hr of Prodrug” value in data set [4] (rat plasma, duodenal injection of the named prodrug) stood at 637 ± 74 ng·h/mL. Also, in data set [4], the “plasma Ara A levels” value was “Increased levels of plasma Ara A”; the “prodrug absorption / prodrug concentrations in systemic plasma (in words)” value is “extended and enhanced concentrations of the prodrug in systemic plasma”. Moreover, the pIC50 in the data set with vaccinia virus was 5.46. Moreover, the pIC50 in the data set on KB cell is below 4.00.

For `C[C@H](N)C(=O)NCC(=O)OC[C@H]1O[C@@H](n2cnc3c(N)ncnc32)[C@@H](O)[C@@H]1O` [5′-O-L-alagly Ara A], in data set [5], the hPepT1/Control is reported as 1.48.

With `NC(CC(=O)O)C(=O)OCC1OC(n2cc(F)c(=O)[nH]c2=O)CC1O` (centres unmarked) [5′-O-aspartyl-Floxuridine], on HPEPT1 [2], the negative-log IC50 (pIC50) is 2.08. In addition, the “% of Control (VACV)” value in data set [1] is 2.3%.

In the case of `NCC(=O)OC[C@H]1O[C@@H](n2cnc3c(N)ncnc32)[C@@H](O)[C@@H]1O` [5′-O-glycyl Ara A], in data set [4], the “plasma Ara A levels” value is reported as “relatively low plasma levels” and the “prodrug absorption / prodrug concentrations in systemic plasma (in words)” value is reported as “limited intestinal absorption of the prodrug”. In addition, the negative logarithm of the IC50 (pIC50) in the data set with vaccinia virus is 4.82. The pIC50 in the data set on KB cell is below 4.00.

As for `N[C@@H](Cc1ccccc1)C(=O)OC[C@H]1O[C@@H](n2cc(F)c(=O)[nH]c2=O)C[C@@H]1O` [5′-O-phenylalanyl-Floxuridine], the pIC50 on HPEPT1 [2] is 2.43. Further, in data set [1], the “% of Control (VACV)” value is 52.8%. For the same compound, on HPEPT1 [3], the “Uptake (hPepT1)” value came out at 1.58 ± 0.20 nmole/mg/45 min and the hPepT1/Control is on record as 12.34.

Consider `CC(C)[C@H](N)C(=O)OC[C@H]1O[C@@H](n2cc(F)c(=O)[nH]c2=O)C[C@@H]1O` [5′-O-valyl-Floxuridine], for which the pIC50 at HPEPT1 [2] was 2.93. Further, in data set [1], the “% of Control (VACV)” value stood at 91.1%. On HPEPT1 [3], the “Uptake (hPepT1)” value worked out at 3.42 ± 0.09 nmole/mg/45 min and the hPepT1/Control worked out at 19.24.
